Experimental data from patent US20260000710A1, “Novel Treatments for Cardiovascular Related Disease” (priority 2022, published 2026).

Tested on: AIM+ and AIM− CD4+ T cells from peptide-expanded PBMCs
Test: TCRβ CDR3 sequencing (immunoSEQ) of sorted AIM+ and AIM− CD4+ T cells;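 note: genomic DNA from sorted cells as template, amplification bias-controlled two-step multiplex PCR, APOB6 pool at 10 µg/ml per peptide, CD40 blocking antibody added before restimulation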
Type: cell-based, human
Details: for Log10 Odds Ratio: AIM+ vs AIM−
[1] = Donor 3, PBMCs expanded 14 days and restimulated 24 h with APOB6
[2] = Donor 6, PBMCs expanded 14 days and restimulated 24 h with APOB6
[3] = Donor 1, PBMCs expanded 14 days and restimulated 24 h with APOB6
[4] = Donor 4, PBMCs expanded 14 days and restimulated 24 h with APOB6
[5] = Donor 5, PBMCs expanded 14 days and restimulated 24 h with APOB6
[6] = Donor 2, PBMCs expanded 14 days and restimulated 24 h with APOB6

Description: To examine the clonotypic identities of autoreactive CD4^+ T cells, the hypervariable TCRβ DR3 region was sequenced using a DNA-based sequencing technique^42 (Adaptive Biotechnologies), which have been used to profile clonal populations of other self-antigen specific T cells^43. PBMCs from six HLA-typed donors (demographics and HLA-II alleles in Tables 5, 6) were expanded (14-days) and restimulated (24 h) with the APOB6 pool. To isolate viable responder and non-responder CD4^+ T cells from the same pool of stimulated PBMCs (schematic in FIG. 15A, gating strategy in FIG. 151B), the inventors used the AIM assay protocol (FIGS. 2A to 2D).
As a second control, unexpanded PBMCs (day 0 samples), sorted into naïve, central memory (TCM) and effector memory (TEM) CD4^+ T cells, were used (gating strategy in FIG. 15C). This allowed tracing the APOB6-specific AIM^+ T cell clones in naïve and memory T cell lineages. Genomic DNA, isolated from sorted AIM^− and AIM^+ Day 14 samples and naïve, TCM and TEM Day 0 samples from six donors, was used as the starting material for TCRVβ sequencing (schematic in FIG. 15A) using an optimized two-step, amplification bias-controlled multiplex-PCR-based approach^42,44 (immunoSEQ Human TCRB Assay, Adaptive Biotechnologies).
For isolation of APOB epitope-specific CD4^+ T cells, PBMCs were expanded with the APOB6pool (10 μg/ml per peptide). On Day 14, cultured cells were washed and re-stimulated with APOB6 (10 μg/ml) for 24 h (AIM assay protocol). 1 μg/ml of CD40 blocking antibody was added 15 min before stimulation. At the end of the stimulation period, cells were washed with FACS buffer (PBS w/o Ca/Mg, 2% FCS). Day 14 (APOB6 expanded and restimulated) and Day 0 (ex vivo samples with no in vitro stimulation) PBMC samples from six donors were resuspended in a staining master mix containing anti-human Fc-Block (Biolegend), fixable viability dye and antibodies against T cell and non-T cell (Dump) surface markers, activation markers and memory markers (antibody details in Table 4). Viability dye was used at 1:1000 dilution, antibodies were used at a final dilution of 1:100 (activation markers) and 1:200 (other extracellular markers). […] Gates were set based on unstimulated and PHA-L stimulated negative and positive controls, respectively. Antigen-specific AIM^+ and non-specific control AIM^− CD4^+ T cells from Day 14 samples and naïve (CD45RA^+CCR7^+), central memory (CD45RA^−CCR7^+, TCM) and effector memory (CD45RA^−CCR7^−, TEM) CD4^+ T cells from Day 0 PBMCs were sorted into HEPES-containing buffer (PBS with 2% FBS and 0.025 M HEPES) using BD FACSAria flow cytometry sorters. Acquired data was analyzed with FlowJo software.
Genomic DNA was extracted from sorted cells using QIAamp DNA Micro Kit (QIAGEN) and sent to Adaptive Biotechnologies for survey-level TCRβ sequencing (depth ˜60,000 reads) using their established immunoSEQ platform^7. Briefly, highly variable CDR3 regions on somatically rearranged human TCRβ chains were amplified with a two-step multiplex PCR approach using optimized set of primers that target the VDJ region spanning each unique CDR3B. A synthetic repertoire containing all possible V/J templates is used as a built-in control to quantify and correct PCR amplification biases. Processing of raw Illumina sequence reads, filtering, demultiplexing, clustering and mapping of CDR3 sequences and annotation of VDJ genes using IMGT database sequences were performed at Adaptive Biotechnologies and made available for download and analysis.

CASIRPGLNYGYTF: TCRβ CDR3 clone, TCRBV06-05+TCRBJ01-02, Donor 3
Log10 Odds Ratio (Donor 3): 1.08 | No. of clone-specific productive templates, AIM+ CD4+ T (Total 16700) [1]: 436 | No. of clone-specific productive templates, AIM− CD4+ T (Total 21770) [1]: 48

CASRETGGAGELFF: TCRβ CDR3 clone, TCRBV06-05+TCRBJ02-02, Donor 6
Log10 Odds Ratio (Donor 6): 2.71 | No. of clone-specific productive templates, AIM+ CD4+ T (Total 34927) [2]: 393 | No. of clone-specific productive templates, AIM− CD4+ T (Total 45364) [2]: 1

CASRGQRDTGELFF: TCRβ CDR3 clone, TCRBV19-01+TCRBJ02-02, Donor 1
Log10 Odds Ratio (Donor 1): 2.63 | No. of clone-specific productive templates, AIM+ CD4+ T (Total 21697) [3]: 367 | No. of clone-specific productive templates, AIM− CD4+ T (Total 49956) [3]: 2

CASRKQGLGYTEAFF: TCRβ CDR3 clone, TCRBV02-01+TCRBJ01-01, Donor 4
Log10 Odds Ratio (Donor 4): 2.45 | No. of clone-specific productive templates, AIM+ CD4+ T (Total 25796) [4]: 544 | No. of clone-specific productive templates, AIM− CD4+ T (Total 25928) [4]: 2

CASRKTGSLYGYTF: TCRβ CDR3 clone, TCRBV27-01+TCRBJ01-02, Donor 5
Log10 Odds Ratio (Donor 5): 11.80 | No. of clone-specific productive templates, AIM+ CD4+ T (Total 31354) [5]: 411 | No. of clone-specific productive templates, AIM− CD4+ T (Total 48987) [5]: 0

CASRTIGQGSFNYGYTF: TCRβ CDR3 clone, TCRBV27-01+TCRBJ01-02, Donor 1
Log10 Odds Ratio (Donor 1): 2.78 | No. of clone-specific productive templates, AIM+ CD4+ T (Total 21697) [3]: 257 | No. of clone-specific productive templates, AIM− CD4+ T (Total 49956) [3]: 1

CASRTTTGFLSPLHF: TCRβ CDR3 clone, TCRBV27-01+TCRBJ01-06, Donor 3
Log10 Odds Ratio (Donor 3): 1.86 | No. of clone-specific productive templates, AIM+ CD4+ T (Total 16700) [1]: 273 | No. of clone-specific productive templates, AIM− CD4+ T (Total 21770) [1]: 5

CASSAMVEQPQHF: TCRβ CDR3 clone, TCRBV06-X+TCRBJ01-05, Donor 4
Log10 Odds Ratio (Donor 4): 0.55 | No. of clone-specific productive templates, AIM+ CD4+ T (Total 25796) [4]: 1709 | No. of clone-specific productive templates, AIM− CD4+ T (Total 25928) [4]: 503

CASSDDLAANVLTF: TCRβ CDR3 clone, TCRBV13-01+TCRBJ02-06, Donor 2
Log10 Odds Ratio (Donor 2): 1.61 | No. of clone-specific productive templates, AIM+ CD4+ T (Total 18591) [6]: 411 | No. of clone-specific productive templates, AIM− CD4+ T (Total 7206) [6]: 4

CASSELGLNTDTQYF: TCRβ CDR3 clone, TCRBV06-01+TCRBJ02-03, Donor 4
Log10 Odds Ratio (Donor 4): 1.11 | No. of clone-specific productive templates, AIM+ CD4+ T (Total 25796) [4]: 2236 | No. of clone-specific productive templates, AIM− CD4+ T (Total 25928) [4]: 190

CASSELGTRPNEQFF: TCRβ CDR3 clone, TCRBV10-01+TCRBJ02-01, Donor 4
Log10 Odds Ratio (Donor 4): 2.76 | No. of clone-specific productive templates, AIM+ CD4+ T (Total 25796) [4]: 558 | No. of clone-specific productive templates, AIM− CD4+ T (Total 25928) [4]: 1

CASSEMGLNTDTQYF: TCRβ CDR3 clone, TCRBV06-01+TCRBJ02-03, Donor 4
Log10 Odds Ratio (Donor 4): 0.45 | No. of clone-specific productive templates, AIM+ CD4+ T (Total 25796) [4]: 1601 | No. of clone-specific productive templates, AIM− CD4+ T (Total 25928) [4]: 601

CASSFTYDEQFF: TCRβ CDR3 clone, TCRBV07-09+TCRBJ02-01, Donor 5
Log10 Odds Ratio (Donor 5): 1.66 | No. of clone-specific productive templates, AIM+ CD4+ T (Total 31354) [5]: 457 | No. of clone-specific productive templates, AIM− CD4+ T (Total 48987) [5]: 16

CASSFVDSPESYEQYF: TCRβ CDR3 clone, TCRBV12-X+TCRBJ02-07, Donor 1
Log10 Odds Ratio (Donor 1): 2.01 | No. of clone-specific productive templates, AIM+ CD4+ T (Total 21697) [3]: 486 | No. of clone-specific productive templates, AIM− CD4+ T (Total 49956) [3]: 11

CASSIPQGSGSPLHF: TCRβ CDR3 clone, TCRBV05-06+TCRBJ01-06, Donor 6; top-ranked APOB6-specific rearrangement
Log10 Odds Ratio (Donor 6): 2.41 | No. of clone-specific productive templates, AIM+ CD4+ T (Total 34927) [2]: 9283 | No. of clone-specific productive templates, AIM− CD4+ T (Total 45364) [2]: 63

CASSIRPNDEQFF: TCRβ CDR3 clone, TCRBV09-01+TCRBJ02-01, Donor 1
Log10 Odds Ratio (Donor 1): 2.93 | No. of clone-specific productive templates, AIM+ CD4+ T (Total 21697) [3]: 366 | No. of clone-specific productive templates, AIM− CD4+ T (Total 49956) [3]: 1

CASSISLALIYEQYF: TCRβ CDR3 clone, TCRBV19-01+TCRBJ02-07, Donor 6
Log10 Odds Ratio (Donor 6): 2.09 | No. of clone-specific productive templates, AIM+ CD4+ T (Total 34927) [2]: 371 | No. of clone-specific productive templates, AIM− CD4+ T (Total 45364) [2]: 4
